Test results as given in patent US4017595A (Research Corporation, priority 1975, dated 1977).

Assay: Organ distribution of Indium-113m EDTMP and DTPMP complexes in rabbits, simultaneous study with Strontium-85
Format: in vivo, adult albino rabbits
Conditions: DTPMP group; for % Dose/1% Bodyweight, Average Bone: mean of femur, tibia, spine and pelvis; for % Dose in Whole Organ, Blood / % Dose in Whole Organ, Kidney / % Dose in Whole Organ, Liver / % Dose in Whole Organ, Marrow / % Dose in Whole Organ, Muscle / % Dose in Whole Organ, One Femur / % Dose in Whole Organ, One Tibia / % Dose in Whole Organ, Urine / % Dose/1% Bodyweight, Blood / % Dose/1% Bodyweight, Femur / % Dose/1% Bodyweight, Kidney / % Dose/1% Bodyweight, Liver / % Dose/1% Bodyweight, Marrow / % Dose/1% Bodyweight, Muscle / % Dose/1% Bodyweight, Pelvis / % Dose/1% Bodyweight, Spine / % Dose/1% Bodyweight, Tibia / Ratio Bone/Blood / Ratio Bone/Marrow / Ratio Bone/Muscle: rabbit i.v.
Procedure: 0.5-1.0 mCi of the complexes prepared according to Examples 1 and 4 (containing 2-5 mg of the phosphonate complex) were injected intravenously into adult albino rabbits weighing 3.5-5 kg. […] Organ distribution characteristics of these compositions were determined after sacrificing the animals 1-4 hours after injection using the method described in Perez et al, J. Nucl. Med. 13:788-789, 1972; Subramanian et al, Radiology, 98:192-196, 1971; Subramanian et al, Radiology, 102:701-704, 1972; Subramanian et al, J. Nucl. Med., 13:947-950, 1972; Tofe et al, J. Nucl. Med., 15:69-74, 1974; Yano, J. Nucl Med., 14:73-78, 1973; Castronova et al, J. Nucl. Med., 13:823-827, 1972; and Subramanian et al, J. Nucl. Med., August, 1975 (U.S. application Ser. No. 368,473, filed June 11, 1973). Appropriate corrections were made for Strontium-85 contributions in the Indium-113m windows.
For each time interval 3 animals were used and average values are set forth. The average bone concentrations expressed as % dose/1% body weight: […]
% dose/1% body weight [formula] are the mean of the concentrations in bone samples from femur, tibia, spine and pelvis. This value was calculated for individual rabbits and the mean value of these averages are shown. The values for ratios were calculated in a similar manner.
With respect to Table 1, Strontium 85 was employed as a biological standard to compare the uptake in various organs of individual groups of animals. In quantifying the bone uptake, it is necessary to compare more than merely the indium concentration from one group to another. In addition, the ratios of indium to strontium from each group should be compared because of the individual variation of bone uptake in animals.

**Q.** Which results are given for O=P(O)(O)CN(CCN(CP(=O)(O)O)CP(=O)(O)O)CCN(CP(=O)(O)O)CP(=O)(O)O [DTPMP, diethylene triamine penta(methylene phosphonic) acid]?
**A.** % Dose/1% Bodyweight, Average Bone (1 Hr.): 5.14 % Dose/1% Bodyweight; % Dose in Whole Organ, Blood (1 Hr.): 8.61 % Dose; % Dose in Whole Organ, Kidney (1 Hr.): 2.43 % Dose; % Dose in Whole Organ, Liver (1 Hr.): 0.702 % Dose; % Dose in Whole Organ, Marrow (1 Hr.): 0.710 % Dose; % Dose in Whole Organ, Muscle (1 Hr.): 4.61 % Dose; % Dose in Whole Organ, One Femur (1 Hr.): 0.782 % Dose; % Dose in Whole Organ, One Tibia (1 Hr.): 0.641 % Dose; % Dose in Whole Organ, Urine (1 Hr.): 31.2 % Dose; % Dose/1% Bodyweight, Blood (1 Hr.): 1.23 % Dose/1% Bodyweight; % Dose/1% Bodyweight, Femur (1 Hr.): 3.57 % Dose/1% Bodyweight; % Dose/1% Bodyweight, Kidney (1 Hr.): 5.62 % Dose/1% Bodyweight; % Dose/1% Bodyweight, Liver (1 Hr.): 0.276 % Dose/1% Bodyweight; % Dose/1% Bodyweight, Marrow (1 Hr.): 0.322 % Dose/1% Bodyweight; % Dose/1% Bodyweight, Muscle (1 Hr.): 0.107 % Dose/1% Bodyweight; % Dose/1% Bodyweight, Pelvis (1 Hr.): 7.15 % Dose/1% Bodyweight; % Dose/1% Bodyweight, Spine (1 Hr.): 4.80 % Dose/1% Bodyweight; % Dose/1% Bodyweight, Tibia (1 Hr.): 3.39 % Dose/1% Bodyweight; Ratio Bone/Blood (1 Hr.): 4.17; Ratio Bone/Marrow (1 Hr.): 15.9; Ratio Bone/Muscle (1 Hr.): 48.0; % Dose/1% Bodyweight, Average Bone (2 Hr.): 4.58 % Dose/1% Bodyweight; % Dose in Whole Organ, Blood (2 Hr.): 3.88 % Dose; % Dose in Whole Organ, Kidney (2 Hr.): 1.09 % Dose; % Dose in Whole Organ, Liver (2 Hr.): 0.453 % Dose; % Dose in Whole Organ, Marrow (2 Hr.): 0.340 % Dose; % Dose in Whole Organ, Muscle (2 Hr.): 1.92 % Dose; % Dose in Whole Organ, One Femur (2 Hr.): 0.648 % Dose; % Dose in Whole Organ, One Tibia (2 Hr.): 0.519 % Dose; % Dose in Whole Organ, Urine (2 Hr.): 65.7 % Dose; % Dose/1% Bodyweight, Blood (2 Hr.): 0.555 % Dose/1% Bodyweight; % Dose/1% Bodyweight, Femur (2 Hr.): 3.07 % Dose/1% Bodyweight; % Dose/1% Bodyweight, Kidney (2 Hr.): 2.40 % Dose/1% Bodyweight; % Dose/1% Bodyweight, Liver (2 Hr.): 0.173 % Dose/1% Bodyweight; % Dose/1% Bodyweight, Marrow (2 Hr.): 0.154 % Dose/1% Bodyweight; % Dose/1% Bodyweight, Muscle (2 Hr.): 0.044 % Dose/1% Bodyweight; % Dose/1% Bodyweight, Pelvis (2 Hr.): 6.15 % Dose/1% Bodyweight; % Dose/1% Bodyweight, Spine (2 Hr.): 4.59 % Dose/1% Bodyweight; % Dose/1% Bodyweight, Tibia (2 Hr.): 2.92 % Dose/1% Bodyweight; Ratio Bone/Blood (2 Hr.): 8.25; Ratio Bone/Marrow (2 Hr.): 29.7; Ratio Bone/Muscle (2 Hr.): 104; % Dose/1% Bodyweight, Average Bone (4 Hr.): 4.79 % Dose/1% Bodyweight; % Dose in Whole Organ, Blood (4 Hr.): 3.08 % Dose; % Dose in Whole Organ, Kidney (4 Hr.): 1.03 % Dose; % Dose in Whole Organ, Liver (4 Hr.): 0.354 % Dose; % Dose in Whole Organ, Marrow (4 Hr.): 0.432 % Dose; % Dose in Whole Organ, Muscle (4 Hr.): 1.92 % Dose; % Dose in Whole Organ, One Femur (4 Hr.): 0.621 % Dose; % Dose in Whole Organ, One Tibia (4 Hr.): 0.471 % Dose; % Dose in Whole Organ, Urine (4 Hr.): 69.9 % Dose; % Dose/1% Bodyweight, Blood (4 Hr.): 0.441 % Dose/1% Bodyweight; % Dose/1% Bodyweight, Femur (4 Hr.): 2.97 % Dose/1% Bodyweight; % Dose/1% Bodyweight, Kidney (4 Hr.): 2.28 % Dose/1% Bodyweight; % Dose/1% Bodyweight, Liver (4 Hr.): 0.184 % Dose/1% Bodyweight; % Dose/1% Bodyweight, Marrow (4 Hr.): 0.196 % Dose/1% Bodyweight; % Dose/1% Bodyweight, Muscle (4 Hr.): 0.044 % Dose/1% Bodyweight; % Dose/1% Bodyweight, Pelvis (4 Hr.): 6.37 % Dose/1% Bodyweight; % Dose/1% Bodyweight, Spine (4 Hr.): 5.16 % Dose/1% Bodyweight; % Dose/1% Bodyweight, Tibia (4 Hr.): 2.76 % Dose/1% Bodyweight; Ratio Bone/Blood (4 Hr.): 10.8; Ratio Bone/Marrow (4 Hr.): 24.4; Ratio Bone/Muscle (4 Hr.): 108
